{"source": "ChEMBL document CHEMBL1201862", "about": "“PubChem BioAssay data set” (2004)", "key": {"SN12K1": {"tested_on": "SN12K1", "experiment": "cells", "assay_type": "functional", "settings": "Homo sapiens"}, "P388": {"tested_on": "P388", "experiment": "cells", "assay_type": "functional", "settings": "Mus musculus"}, "P388/ADR": {"tested_on": "P388/ADR", "experiment": "cells", "assay_type": "functional", "settings": "Mus musculus"}, "[1]": {"experiment": "Fluorescence-based cell-based high throughput dose response assay for inhibitors of the interaction of nucleotide-binding oligomerization domain containing 2 (NOD2) and the receptor-interacting serine-threonine kinase 2 (RIPK2).", "assay_type": "functional", "settings": "Homo sapiens"}, "[2]": {"target": "T1, DNA repair protein RAD52 homolog (Homo sapiens, UniProt P43351)", "T1 sequence (P43351 whole entry)": "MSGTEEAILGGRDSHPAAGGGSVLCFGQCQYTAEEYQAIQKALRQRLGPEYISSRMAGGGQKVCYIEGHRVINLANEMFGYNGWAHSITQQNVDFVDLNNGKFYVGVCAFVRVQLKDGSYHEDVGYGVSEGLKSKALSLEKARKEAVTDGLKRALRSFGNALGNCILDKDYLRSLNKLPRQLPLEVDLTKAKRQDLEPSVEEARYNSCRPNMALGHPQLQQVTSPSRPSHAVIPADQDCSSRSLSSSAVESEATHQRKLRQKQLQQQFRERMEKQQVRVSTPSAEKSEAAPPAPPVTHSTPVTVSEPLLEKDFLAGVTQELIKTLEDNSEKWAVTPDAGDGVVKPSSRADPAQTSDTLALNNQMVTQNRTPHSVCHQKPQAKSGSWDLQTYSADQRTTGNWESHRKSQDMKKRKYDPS", "assay_type": "functional, biochemical"}, "Steroidogenic factor 1": {"target": "Steroidogenic factor 1 (Homo sapiens, UniProt Q13285)", "sequence (Q13285 whole entry)": "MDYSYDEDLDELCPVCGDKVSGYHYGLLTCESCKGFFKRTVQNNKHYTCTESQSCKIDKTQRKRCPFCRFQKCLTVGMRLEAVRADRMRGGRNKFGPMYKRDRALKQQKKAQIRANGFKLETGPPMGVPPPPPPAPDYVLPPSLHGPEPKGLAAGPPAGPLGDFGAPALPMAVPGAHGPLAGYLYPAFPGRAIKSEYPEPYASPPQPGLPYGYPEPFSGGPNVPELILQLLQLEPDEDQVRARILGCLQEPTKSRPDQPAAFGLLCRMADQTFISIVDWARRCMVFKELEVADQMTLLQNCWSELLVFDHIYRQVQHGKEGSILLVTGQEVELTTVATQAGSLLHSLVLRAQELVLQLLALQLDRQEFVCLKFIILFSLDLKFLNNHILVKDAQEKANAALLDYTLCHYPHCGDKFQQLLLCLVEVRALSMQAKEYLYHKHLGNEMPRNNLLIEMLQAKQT", "experiment": "Counterscreen for inverse agonists of the liver receptor homolog-1 (LRH-1; NR5A2): Luminescence-based cell-based high throughput dose response assay to identify inverse agonists of the Steroidogenic Factor 1 Nuclear Receptor (SF1; NR5A1).", "assay_type": "functional"}, "[3]": {"target": "Nuclear receptor subfamily 5 group A member 2 (Homo sapiens, UniProt O00482)", "sequence (O00482 whole entry)": "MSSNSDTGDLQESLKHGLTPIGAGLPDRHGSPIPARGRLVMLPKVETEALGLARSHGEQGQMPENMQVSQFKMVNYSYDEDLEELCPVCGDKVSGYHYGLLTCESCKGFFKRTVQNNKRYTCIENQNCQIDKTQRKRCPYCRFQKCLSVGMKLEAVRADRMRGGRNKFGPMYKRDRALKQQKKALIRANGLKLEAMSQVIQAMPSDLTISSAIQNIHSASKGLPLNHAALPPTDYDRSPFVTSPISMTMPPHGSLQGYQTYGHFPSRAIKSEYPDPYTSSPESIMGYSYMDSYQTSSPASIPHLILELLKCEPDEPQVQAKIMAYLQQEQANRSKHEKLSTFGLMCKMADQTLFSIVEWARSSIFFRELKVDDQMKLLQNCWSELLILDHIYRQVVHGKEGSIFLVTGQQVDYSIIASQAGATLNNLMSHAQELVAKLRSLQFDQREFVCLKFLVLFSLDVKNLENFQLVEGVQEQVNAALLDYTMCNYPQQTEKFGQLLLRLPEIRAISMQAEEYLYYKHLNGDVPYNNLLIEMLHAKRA", "assay_type": "functional, cell-based"}, "Bcl-2-related protein A1": {"target": "T2, Bcl-2-related protein A1 (Mus musculus, UniProt Q07440)", "T2 sequence (Q07440 whole entry)": "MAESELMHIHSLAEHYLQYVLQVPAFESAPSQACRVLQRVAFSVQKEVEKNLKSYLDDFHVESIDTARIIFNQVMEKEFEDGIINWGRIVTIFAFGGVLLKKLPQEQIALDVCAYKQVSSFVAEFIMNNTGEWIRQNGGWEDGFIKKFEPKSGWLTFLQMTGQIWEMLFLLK", "assay_type": "functional"}, "HEK293 [4]": {"tested_on": "HEK293", "experiment": "optical interference in Abeta FP readout, dose response, artefact control for IDE activator project, biochemical, fluorescence polarization (AID 588442)", "assay_type": "functional, cell-based", "settings": "Homo sapiens"}, "HEK293 [5]": {"tested_on": "HEK293", "experiment": "membrane integrity loss in HEK cells – cell-based, fluorescence, cytotoxicity control for IDE activator project, dose response (AID 588440);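 note: cytotoxicity by LDH release measuring loss of membrane integrity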", "assay_type": "functional, Homo sapiens", "settings": "Homo sapiens, HEK293"}, "[6]": {"target": "T3, Ubiquitin-conjugating enzyme E2 N (Homo sapiens, UniProt P61088)", "T3 sequence (P61088 whole entry)": "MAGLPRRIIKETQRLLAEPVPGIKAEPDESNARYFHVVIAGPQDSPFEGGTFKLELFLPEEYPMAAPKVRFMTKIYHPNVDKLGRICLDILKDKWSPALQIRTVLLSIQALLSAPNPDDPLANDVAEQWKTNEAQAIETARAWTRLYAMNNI", "assay_type": "functional"}, "Insulin-degrading enzyme [7]": {"target": "T4, Insulin-degrading enzyme (Homo sapiens, UniProt P14735)", "T4 sequence (P14735 whole entry)": "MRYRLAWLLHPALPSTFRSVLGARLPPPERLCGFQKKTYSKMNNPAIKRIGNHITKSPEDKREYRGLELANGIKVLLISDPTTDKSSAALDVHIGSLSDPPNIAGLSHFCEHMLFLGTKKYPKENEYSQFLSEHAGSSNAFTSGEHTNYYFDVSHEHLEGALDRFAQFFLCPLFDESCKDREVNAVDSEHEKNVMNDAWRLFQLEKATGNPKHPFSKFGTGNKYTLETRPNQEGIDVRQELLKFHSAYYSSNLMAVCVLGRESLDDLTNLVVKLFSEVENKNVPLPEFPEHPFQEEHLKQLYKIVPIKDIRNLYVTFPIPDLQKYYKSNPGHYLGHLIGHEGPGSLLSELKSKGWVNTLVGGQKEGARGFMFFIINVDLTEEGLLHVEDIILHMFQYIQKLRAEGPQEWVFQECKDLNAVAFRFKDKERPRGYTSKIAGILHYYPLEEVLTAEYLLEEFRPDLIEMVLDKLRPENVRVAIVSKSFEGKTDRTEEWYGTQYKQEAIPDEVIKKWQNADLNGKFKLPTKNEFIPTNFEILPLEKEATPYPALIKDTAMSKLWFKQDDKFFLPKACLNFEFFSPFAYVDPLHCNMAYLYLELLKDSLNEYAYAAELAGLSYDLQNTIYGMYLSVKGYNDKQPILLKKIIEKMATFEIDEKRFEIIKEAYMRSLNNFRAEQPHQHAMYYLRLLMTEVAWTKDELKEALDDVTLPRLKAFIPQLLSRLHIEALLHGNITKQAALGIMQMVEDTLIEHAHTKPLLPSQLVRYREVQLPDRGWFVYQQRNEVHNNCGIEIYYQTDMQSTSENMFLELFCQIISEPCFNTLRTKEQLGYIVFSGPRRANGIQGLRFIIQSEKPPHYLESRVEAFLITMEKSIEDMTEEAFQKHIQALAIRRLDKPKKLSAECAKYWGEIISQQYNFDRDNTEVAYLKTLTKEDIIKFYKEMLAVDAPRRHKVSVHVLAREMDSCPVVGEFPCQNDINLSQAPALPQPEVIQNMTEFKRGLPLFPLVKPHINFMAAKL", "experiment": "recombinant IDE activation, cell-free – biochemical, fluorescence polarization, counter-screen for IDE activator project, dose response (AID 588681)"}, "[8]": {"target": "T3, Ubiquitin-conjugating enzyme E2 N", "assay_type": "functional", "remark": "listed apart in the source"}, "Insulin-degrading enzyme [9]": {"target": "T4, Insulin-degrading enzyme", "experiment": "cellular IDE activation of Abeta substrate cleavage – fluorescence polarization, HEK cells, dose response (AID 588439)", "assay_type": "functional, cell-based"}, "[10]": {"target": "Intestinal-type alkaline phosphatase (Mus musculus, UniProt P24822)", "sequence (P24822 whole entry)": "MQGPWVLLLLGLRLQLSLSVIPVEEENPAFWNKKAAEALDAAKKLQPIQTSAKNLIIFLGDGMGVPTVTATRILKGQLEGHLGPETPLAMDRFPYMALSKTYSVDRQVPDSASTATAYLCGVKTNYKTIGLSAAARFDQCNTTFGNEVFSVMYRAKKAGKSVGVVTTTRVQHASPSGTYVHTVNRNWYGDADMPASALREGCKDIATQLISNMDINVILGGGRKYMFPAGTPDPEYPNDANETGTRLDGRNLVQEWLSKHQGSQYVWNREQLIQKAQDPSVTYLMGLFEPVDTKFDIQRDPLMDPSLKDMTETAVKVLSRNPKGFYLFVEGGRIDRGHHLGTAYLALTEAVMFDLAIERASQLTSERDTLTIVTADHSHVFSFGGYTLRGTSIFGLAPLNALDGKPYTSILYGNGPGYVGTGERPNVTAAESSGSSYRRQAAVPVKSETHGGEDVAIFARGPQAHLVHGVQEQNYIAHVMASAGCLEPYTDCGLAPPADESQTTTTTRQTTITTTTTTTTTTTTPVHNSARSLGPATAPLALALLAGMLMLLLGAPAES", "experiment": "PubChem AID 488785", "assay_type": "functional"}, "[11]": {"target": "Intestinal-type alkaline phosphatase (Homo sapiens, UniProt P09923)", "sequence (P09923 whole entry)": "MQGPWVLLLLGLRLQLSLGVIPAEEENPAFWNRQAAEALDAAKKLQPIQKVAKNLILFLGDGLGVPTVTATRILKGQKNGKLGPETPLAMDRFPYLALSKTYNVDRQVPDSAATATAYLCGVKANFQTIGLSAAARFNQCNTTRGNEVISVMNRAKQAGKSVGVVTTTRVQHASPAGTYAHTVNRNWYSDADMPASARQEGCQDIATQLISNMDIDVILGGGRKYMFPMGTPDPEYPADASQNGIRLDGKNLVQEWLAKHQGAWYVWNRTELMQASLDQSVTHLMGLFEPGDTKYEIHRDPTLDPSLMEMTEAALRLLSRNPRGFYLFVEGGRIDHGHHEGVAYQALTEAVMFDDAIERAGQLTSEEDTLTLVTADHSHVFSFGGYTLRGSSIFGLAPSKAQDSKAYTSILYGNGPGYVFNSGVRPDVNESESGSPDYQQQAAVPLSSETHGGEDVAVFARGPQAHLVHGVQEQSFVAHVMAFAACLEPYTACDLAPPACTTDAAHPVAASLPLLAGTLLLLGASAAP", "experiment": "inhibition of human intestinal alkaline phosphatase – biochemical, dose response (AID 488876)", "assay_type": "functional"}, "[12]": {"experiment": "viability of uninfected HEp-2 cells – cell-based, HTS, cytotoxicity control for RSV inhibitor project, dose response (AID 2410)", "assay_type": "functional", "settings": "human respiratory syncytial virus"}, "[13]": {"target": "T5, Alkaline phosphatase, tissue-nonspecific isozyme (Homo sapiens, UniProt P05186)", "T5 sequence (P05186 whole entry)": "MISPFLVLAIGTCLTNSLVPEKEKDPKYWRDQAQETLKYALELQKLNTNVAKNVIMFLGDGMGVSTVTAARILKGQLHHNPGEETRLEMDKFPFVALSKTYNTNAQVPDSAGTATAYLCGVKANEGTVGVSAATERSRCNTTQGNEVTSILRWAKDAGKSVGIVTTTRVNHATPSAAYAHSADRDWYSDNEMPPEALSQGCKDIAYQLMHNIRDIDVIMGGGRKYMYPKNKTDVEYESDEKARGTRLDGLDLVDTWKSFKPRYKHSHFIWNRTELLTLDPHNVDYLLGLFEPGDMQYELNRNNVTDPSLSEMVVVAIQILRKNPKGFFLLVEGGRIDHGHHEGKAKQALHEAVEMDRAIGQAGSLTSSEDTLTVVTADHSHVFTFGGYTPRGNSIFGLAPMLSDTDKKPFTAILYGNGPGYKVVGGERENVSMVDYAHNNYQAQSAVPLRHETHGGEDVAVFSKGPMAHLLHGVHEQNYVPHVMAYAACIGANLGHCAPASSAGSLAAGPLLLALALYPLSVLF", "experiment": "TNAP enzyme inhibition by screening hits, dose response, selectivity assay for mouse IAP inhibitor project, biochemical, human TNAP, uHTS hits (AID 488906)", "assay_type": "functional"}, "[14]": {"target": "T6, Adenosylmethionine-8-amino-7-oxononanoate aminotransferase (Mycobacterium tuberculosis, UniProt P9WQ81)", "T6 sequence (P9WQ81 whole entry)": "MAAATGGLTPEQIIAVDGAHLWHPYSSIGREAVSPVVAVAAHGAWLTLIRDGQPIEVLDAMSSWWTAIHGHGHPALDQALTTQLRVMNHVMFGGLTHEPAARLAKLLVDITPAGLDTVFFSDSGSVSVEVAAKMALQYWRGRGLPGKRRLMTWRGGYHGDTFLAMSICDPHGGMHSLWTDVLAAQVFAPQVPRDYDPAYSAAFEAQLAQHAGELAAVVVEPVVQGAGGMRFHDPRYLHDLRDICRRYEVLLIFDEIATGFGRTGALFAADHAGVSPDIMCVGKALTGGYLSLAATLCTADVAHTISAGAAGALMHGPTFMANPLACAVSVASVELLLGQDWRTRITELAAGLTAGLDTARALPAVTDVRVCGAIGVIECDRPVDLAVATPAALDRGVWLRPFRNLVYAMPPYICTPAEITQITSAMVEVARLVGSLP", "experiment": "Mycobacterium tuberculosis BioA enzyme inhibitor Measured in Biochemical System Using Plate Reader - 2163-02_Inhibitor_Dose_CherryPick_Activity.", "assay_type": "functional, Mycobacterium tuberculosis UT205"}}, "note": "Active and inactive are the calls of the source."}
{"smiles": "CC(=O)OC1C(O)C(C)OC(OC2C(OC(=O)C3CCC4C(C3)OC3(CC(OC(=O)/C=C/c5ccccc5)C(C)CO3)C43CO3)OC(C)C(O)C2OC(C)=O)C1O", "note": "(configuration not stated)", "values": [{"measurement": "GI50", "setting": "SN12K1", "result": "0.0172 µM (active)"}, {"measurement": "GI50", "setting": "P388", "result": "0.0895 µM (active)"}, {"measurement": "GI50", "setting": "P388/ADR", "result": "> 1.75 µM (inactive)"}, {"measurement": "IC50", "setting": "[1]", "result": "49.8 µM (inactive)"}]}
{"smiles": "NCCCC[C@H]1CN=C(S)N1CCCCC1CCCCC1", "values": [{"measurement": "AC50", "setting": "[2]", "result": "10.9 µM (active)"}]}
{"smiles": "COc1ccc(NC(=O)COC(=O)c2cc(S(=O)(=O)N3CCCC3)ccc2O)cc1", "values": [{"measurement": "IC50", "setting": "Steroidogenic factor 1", "result": "11.2 µM (inactive)"}, {"measurement": "IC50", "setting": "[3]", "result": "35.9 µM (inactive)"}]}
{"smiles": "C#CCOCCOCCOCCNc1nc(N2CCN(C(=O)CCCCCCCCCCNC(=O)[C@H](CCCCN)n3cc(C)nn3)CC2)nc(N2CCN(C(=O)CCCCCCCCCCNC(=O)[C@@H]([C@H](C)O)n3cc(C)nn3)CC2)n1", "values": [{"measurement": "IC50", "setting": "Bcl-2-related protein A1", "result": "> 20 µM (inactive)"}, {"measurement": "EC50", "setting": "HEK293 [4]", "result": "> 54.7 µM (inactive)"}, {"measurement": "IC50", "setting": "HEK293 [5]", "result": "11.4 µM (inactive)"}, {"measurement": "IC50", "setting": "[6]", "result": "6.61 µM (active)"}, {"measurement": "EC50", "setting": "Insulin-degrading enzyme [7]", "result": "> 54.7 µM (inactive)"}, {"measurement": "IC50", "setting": "[8]", "result": "11.1 µM (active)"}, {"measurement": "EC50", "setting": "Insulin-degrading enzyme [9]", "result": "> 54.7 µM (inactive)"}]}
{"smiles": "C#CCOCCOCCOCCNc1nc(N2CCN(C(=O)CCCCCCCCCCNC(=O)[C@@H](CCSC)n3cc(CCO)nn3)CC2)nc(N2CCN(C(=O)CCCCCCCCCCNC(=O)[C@H]([C@@H](C)CC)n3cc(CCCCN=C(N)N)nn3)CC2)n1", "values": [{"measurement": "IC50", "setting": "Bcl-2-related protein A1", "result": "5.51 µM (active)"}, {"measurement": "EC50", "setting": "HEK293 [4]", "result": "> 56 µM (inactive)"}, {"measurement": "IC50", "setting": "[10]", "result": "1.66 µM (active)"}, {"measurement": "IC50", "setting": "HEK293 [5]", "result": "4.44 µM (active)"}, {"measurement": "IC50", "setting": "[6]", "result": "3.81 µM (active)"}, {"measurement": "IC50", "setting": "[11]", "result": "> 100 µM (inactive)"}, {"measurement": "EC50", "setting": "Insulin-degrading enzyme [7]", "result": "2.36 µM (active)"}, {"measurement": "CC50", "setting": "[12]", "result": "16 µM (active)"}, {"measurement": "IC50", "setting": "[8]", "result": "5.82 µM (active)"}, {"measurement": "IC50", "setting": "[13]", "result": "58.7 µM (active)"}, {"measurement": "EC50", "setting": "Insulin-degrading enzyme [9]", "result": "> 2.03 µM (active)"}]}
{"smiles": "COc1cccc(-c2ccc3c(c2)[C@H]2[C@H](CCN2C(=O)C2CCC2)[C@@H](CO)N3)c1", "values": [{"measurement": "AC50", "setting": "[14]", "result": "7.13 µM (active)"}]}
{"smiles": "CCN(CC)CCNC(=O)C(=O)NCC1OCCN1S(=O)(=O)c1cccs1", "note": "(configuration not stated)", "values": [{"measurement": "AC50", "setting": "[2]", "result": "29.3 µM (active)"}]}
